# Test results taken from PMC12432892, “Therapeutic applications of interface-mimicking peptides for targeting the SARS-CoV-2 NSP12-NSP8 RdRp complex” (Molecular Therapy, 2025).
# How the values were obtained:
# [1] = test system: wild-type ancestral SARS-CoV-2 L-clade strain; type: cell-based
# Vero-E6 cells = test: in vitro; type: cell-based; conditions: MTT, 24 h
# Protocol: (§1) The cytotoxicity of test samples was assessed in Vero-E6 cells using the MTT assay, following the manufacturer’s protocol for the CellTiter 96 Non-radioactive Cell Proliferation Assay (Promega). Briefly, […] cells were seeded in 96-well plates at a density of 2 × 10^4 cells per well and incubated for 24 h. Following this, cells were treated with test samples at concentrations ranging from 0.2 to 40 μM and incubated for an additional 24 h. After incubation, 15 μL of MTT reagent (dye solution) was added to each well, and the cells were further incubated for 4 h. Subsequently, 100 μL of solubilization/stop solution was added to dissolve the formazan crystals. The optical density was measured at 570 nm, and statistical significance was determined by comparing the results to those of the mock-treated cells. […]
# (§2) Figure S5. MTT assay of peptides including scrambled version
# (§3) Vero-E6 cells were treated with NSP8-based peptides at concentrations ranging from 0.2 to 40 μM and incubated for an additional 24 hours. Cytotoxicity was evaluated using the MTT assay to assess the impact of the peptides on cell viability. According to IOS 10993-5 guidelines, cell […]
# (§4) moderate cytotoxicity, and below 40% signifies strong cytotoxicity. […]
# in vitro = type: cell-based; conditions: Vero-E6 cells, MTT, 40 μM peptide, read-out: cell viability
# Protocol: as §1, §2, §3, §4
# [2] = Liver microsomal stability; type: in vitro ADME, mouse; conditions: for Metabolic Stability Evaluation: classified based on in vivo CL_int values (footnote of Table S3); for half-life at 10 μM / remaining at 1 h, 10 μM / microsomal CLint at 10 μM: mouse liver microsomes (CD-1, pooled), 37°C; for half-life at 10 μM: NADPH, 0, 5, 15, 30, 60 min, duplicate (n = 2); for half-life at 10 μM / remaining at 1 h, 10 μM: LC-MS/MS; for remaining at 1 h, 10 μM / microsomal CLint at 10 μM: NADPH; for remaining at 1 h, 10 μM: n = 2, read-out: Microsomal Stability Remaining at 60 min; for microsomal CLint at 10 μM: calculated from the depletion rate, read-out: CL_int, microsomal; for CL_int, in vivo: scaled from microsomal CL_int to in vivo liver clearance using established mouse parameters
# Protocol: Reactions were quenched and peptide concentrations were quantified using liquid chromatography-tandem mass spectrometry (LC-MS/MS) (AB Sciex QTRAP 6500+, Analyst software version 1.7.2). Clearance and half-life were calculated by non-compartmental analysis, and values were converted to hepatic clearance (CLint, liver) using standard scaling factors.
# (§5) All in vitro stability experiments were performed in duplicate (n = 2). Since the standard deviation was less than 20% in all cases, no additional replicates were conducted.
# Plasma stability = type: in vitro ADME; conditions: mouse plasma (ICR, male, K2-EDTA), LC-MS/MS; for Plasma Stability Half-life / time to complete loss of detectable peptide in plasma: 10 μM; for Plasma Stability Half-life / half-life at 10 μM: 37°C, 0, 20, 40, 60, 120 min, duplicate (n = 2); for time to complete loss of detectable peptide in plasma: 37°C, n = 2
# Protocol: Plasma stability of the peptides was evaluated using mouse plasma (ICR, male, K2-EDTA) purchased from Innovative Research. Each peptide (10 μM final concentration) was incubated at 37°C for 0, 20, 40, 60, and 120 min. Samples were processed and analyzed by LC-MS/MS, as described above. Procaine was used as a positive control.
# as §5
# NSP12-NSP8-NSP7 complex = molecular target: T1, NSP12-NSP8-NSP7 complex (Severe acute respiratory syndrome coronavirus 2, UniProt P0DTD1); type: binding, SARS-CoV-2; conditions: for KD of the NSP8-NSP7-RNA ligand complex to NSP12 in the presence of the peptide: MST, labeled NSP12 20 nM, PBS with Tween 20, mean ± SD, more than three independent analyses, no-peptide Ctrl 11.9-12.9 nM
# T1 construct: made in house; host or cells: NSP12: baculovirus in Hifive insect cells; NSP7 and NSP8: E. coli BL21(DE3), pET-11
# SARS-CoV-2 RdRp = molecular target: T2, SARS-CoV-2 RdRp (Severe acute respiratory syndrome coronavirus 2, UniProt P0DTD1); type: cell-based
# T2 construct: The SARS-CoV-2 reporter and NSP12, NSP7, and NSP8 genes were cloned into pcDNA3.1(+) plasmid vectors; expressed in transfected cells; host or cells: 293T (HEK-293T) cells, pcDNA3.1(+) plasmids
# [3] = concentrations between 20 and 40 μM
Molecule,"viral replication (infectious virus titers, TCID50), in words [1]",cytotoxicity (ISO 10993-5) (Vero-E6 cells; at 40 μM),"viability at 24 h, 40 µM (in vitro)",Metabolic Stability Evaluation [2],half-life at 10 μM [2],"remaining at 1 h, 10 μM [2]",microsomal CLint at 10 μM [2],"CL_int, in vivo [2]",Plasma Stability Half-life (Plasma stability),time to complete loss of detectable peptide in plasma (Plasma stability),half-life at 10 μM (Plasma stability),KD of the NSP8-NSP7-RNA ligand complex to NSP12 in the presence of the peptide (NSP12-NSP8-NSP7 complex),"peptide aggregation in the MST assay (NSP12-NSP8-NSP7 complex; PBS with Tween 20 buffer, peptide 24 μM)",cytotoxicity (ISO 10993-5) (Vero-E6 cells; [3]),"effect on polymerase activity, in words (SARS-CoV-2 RdRp)"
CC[C@H](C)[C@H](NC(=O)[C@H](CC(N)=O)NC(=O)[C@H](CC(N)=O)NC(=O)[C@H](CC(C)C)NC(=O)[C@H](C)NC(=O)[C@H](CC(=O)O)NC(=O)[C@H](CC(N)=O)NC(C)=O)C(=O)N[C@H](C(=O)N[C@@H](CC(N)=O)C(=O)N[C@@H](CC(N)=O)C(=O)N[C@@H](C)C(=O)N[C@@H](CCCNC(=N)N)C(=O)N[C@@H](CC(=O)O)C(=O)NCC(=O)N[C@@H](CS)C(=O)N[C@H](C(=O)N1CCC[C@H]1C(=O)N[C@@H](CC(C)C)C(=O)N[C@@H](CC(N)=O)C(=O)N[C@H](C(=O)N[C@H](C(=O)N1CCC[C@H]1C(=O)N[C@@H](CC(C)C)C(=O)N[C@H](C(=O)N[C@H](C(=O)N[C@@H](C)C(=O)NCC(=O)N[C@@H](CCCNC(=N)N)C(=O)N[C@@H](CCCCN)C(=O)N[C@@H](CCCCN)C(=O)N[C@@H](CCCNC(=N)N)C(=O)N[C@@H](CCCNC(=N)N)C(=O)N[C@@H](CCC(N)=O)C(=O)N[C@@H](CCCNC(=N)N)C(=O)N[C@@H](CCCNC(=N)N)C(=O)N[C@@H](CCCNC(=N)N)C(=O)N1CCC[C@H]1C(=O)N[C@@H](CCC(N)=O)C(N)=O)[C@@H](C)O)[C@@H](C)O)[C@@H](C)CC)[C@@H](C)CC)C(C)C)[C@@H](C)CC [N8-Pepα],strongest antiviral effects,no cytotoxicity (cell viability above 80% indicates no cytotoxicity),> 80%,High metabolism,9.2 min,0%,151 µL/min/mg,594.7 mL/min/kg,approximately 3 min,≤ 20 min,3 min,,,,
CC[C@H](C)[C@@H]1NC(=O)[C@H](CC(N)=O)NC(=O)[C@H](CC(N)=O)NC(=O)[C@H](CC(C)C)NC(=O)[C@H](C)NC(=O)[C@H](CC(=O)O)NC(=O)[C@H](CC(N)=O)NC(=O)[C@@H](NC(C)=O)CSSC[C@@H](C(=O)NCC(=O)N[C@@H](CCCNC(=N)N)C(=O)N[C@@H](CCCCN)C(=O)N[C@@H](CCCCN)C(=O)N[C@@H](CCCNC(=N)N)C(=O)N[C@@H](CCCNC(=N)N)C(=O)N[C@@H](CCC(N)=O)C(=O)N[C@@H](CCCNC(=N)N)C(=O)N[C@@H](CCCNC(=N)N)C(=O)N[C@@H](CCCNC(=N)N)C(=O)N2CCC[C@H]2C(=O)N[C@@H](CCC(N)=O)C(N)=O)NC(=O)[C@H](C)NC(=O)[C@H]([C@@H](C)O)NC(=O)[C@H]([C@@H](C)O)NC(=O)[C@H](CC(C)C)NC(=O)[C@@H]2CCCN2C(=O)[C@H]([C@@H](C)CC)NC(=O)[C@H]([C@@H](C)CC)NC(=O)[C@H](CC(N)=O)NC(=O)[C@H](CC(C)C)NC(=O)[C@@H]2CCCN2C(=O)[C@H](C(C)C)NC(=O)[C@H](CS)NC(=O)CNC(=O)[C@H](CC(=O)O)NC(=O)[C@H](CCCNC(=N)N)NC(=O)[C@H](C)NC(=O)[C@H](CC(N)=O)NC(=O)[C@H](CC(N)=O)NC(=O)[C@H]([C@@H](C)CC)NC1=O [N8-Pepα_cyc],strongest antiviral effects,no cytotoxicity (cell viability above 80% indicates no cytotoxicity),> 80%,High metabolism,23.3 min,14.9%,59.6 µL/min/mg,234.7 mL/min/kg,approximately 3 min,≤ 20 min,3 min,,,,
Ac-INRNLTVPNICTPGILINADANADLNGRKKRRQRRRPQ-NH2 [N8-Pepα_sc],,,,,,,,,,,,14.3 ± 1.0 nM,,,
Ac-YGRKKRRQRRRGSGVVIPKIDLAAPNLMDLVPCRIATTG-NH2 [N8-PepβD_sc],,,,,,,,,,,,,could not be determined due to peptide aggregation,,
Ac-YGRKKRRQRRRGSGINVDAPMNNAGLKLTIRPCLTVIVNANIL-NH2 [N8-Pepβ_sc],,,,,,,,,,,,14.2 ± 0.9 nM,,,
CC[C@H](C)[C@H](NC(=O)[C@H](CC(N)=O)NC(=O)[C@H](CC(C)C)NC(=O)[C@@H]1CCCN1C(=O)[C@@H](NC(=O)[C@H](CS)NC(=O)CNC(=O)[C@H](CC(=O)O)NC(=O)[C@H](CCCNC(=N)N)NC(=O)[C@H](C)NC(=O)CNC(=O)[C@H](CO)NC(=O)CNC(=O)[C@H](CCCNC(=N)N)NC(=O)[C@H](CCCNC(=N)N)NC(=O)[C@H](CCCNC(=N)N)NC(=O)[C@H](CCC(N)=O)NC(=O)[C@H](CCCNC(=N)N)NC(=O)[C@H](CCCNC(=N)N)NC(=O)[C@H](CCCCN)NC(=O)[C@H](CCCCN)NC(=O)[C@H](CCCNC(=N)N)NC(=O)CNC(=O)[C@H](Cc1ccc(O)cc1)NC(C)=O)C(C)C)C(=O)N[C@H](C(=O)N1CCC[C@H]1C(=O)N[C@@H](CC(C)C)C(=O)N[C@H](C(=O)N[C@H](C(=O)N[C@@H](C)C(=O)N[C@@H](C)C(=O)N[C@@H](CCCCN)C(=O)N[C@@H](CC(C)C)C(=O)N[C@@H](CCSC)C(=O)N[C@H](C(=O)N[C@H](C(=O)N[C@H](C(=O)N1CCC[C@H]1C(=O)N[C@@H](CC(=O)O)C(N)=O)[C@@H](C)CC)C(C)C)C(C)C)[C@@H](C)O)[C@@H](C)O)[C@@H](C)CC [N8-PepβD],,,,High metabolism,17.8 min,7.8%,77.9 µL/min/mg,306.7 mL/min/kg,approximately 3 min,≤ 20 min,3 min,,,weak cytotoxicity (80%-60% suggests weak cytotoxicity),
CC[C@H](C)[C@H](NC(=O)[C@H](CC(N)=O)NC(=O)[C@H](CC(N)=O)NC(=O)[C@H](CC(C)C)NC(=O)CNC(=O)[C@H](CO)NC(=O)CNC(=O)[C@H](CCCNC(=N)N)NC(=O)[C@H](CCCNC(=N)N)NC(=O)[C@H](CCCNC(=N)N)NC(=O)[C@H](CCC(N)=O)NC(=O)[C@H](CCCNC(=N)N)NC(=O)[C@H](CCCNC(=N)N)NC(=O)[C@H](CCCCN)NC(=O)[C@H](CCCCN)NC(=O)[C@H](CCCNC(=N)N)NC(=O)CNC(=O)[C@H](Cc1ccc(O)cc1)NC(C)=O)C(=O)N[C@H](C(=O)N[C@@H](CC(N)=O)C(=O)N[C@@H](CC(N)=O)C(=O)N[C@@H](C)C(=O)N[C@@H](CCCNC(=N)N)C(=O)N[C@@H](CC(=O)O)C(=O)NCC(=O)N[C@@H](CS)C(=O)N[C@H](C(=O)N1CCC[C@H]1C(=O)N[C@@H](CC(C)C)C(=O)N[C@@H](CC(N)=O)C(=O)N[C@H](C(=O)N[C@H](C(=O)N1CCC[C@H]1C(=O)N[C@@H](CC(C)C)C(=O)N[C@H](C(=O)N[C@H](C(=O)N[C@@H](C)C(=O)N[C@@H](C)C(=O)N[C@@H](CCCCN)C(=O)N[C@@H](CC(C)C)C(=O)N[C@@H](CCSC)C(=O)N[C@H](C(=O)N[C@H](C(N)=O)C(C)C)C(C)C)[C@@H](C)O)[C@@H](C)O)[C@@H](C)CC)[C@@H](C)CC)C(C)C)[C@@H](C)CC [N8-Pepβ],,,,High metabolism,9.8 min,15.1%,142 µL/min/mg,559.2 mL/min/kg,approximately 3 min,≤ 20 min,3 min,,,weak cytotoxicity (80%-60% suggests weak cytotoxicity),
CCC(CC)COC(=O)[C@H](C)N[P@](=O)(OC[C@H]1O[C@@](C#N)(c2ccc3c(N)ncnn23)[C@H](O)[C@@H]1O)Oc1ccccc1 [remdesivir],,,,,,,,,,,,,,,dose-dependent reduction in polymerase activity
